Where “and” joins values, the source holds several entries; their conditions need not be identical. Equal values may be shown once.
Tested on: NCI-H196 complex spheroids with HUVEC/MSC, growth % T/C
Test: Anticancer human tumor NCI-H196 cell line growth inhibition [Asc];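 also: spheroids exposed to compound for 7 days before measurement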;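 as to viability, T/C: 100% = DMSO vehicle control wells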
Conditions: for viability, T/C: stronger effect = lower value
Procedure, shortened: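 Concentration series start at each agent's clinical Cmax, or at 10 microM when none is established, and drop in half-log steps; agents are applied alone or together to complex spheroids built with HUVEC and hMSC.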

[1] = curve of first compound, second compound 0.03 µM
[2] = curve of first compound, second compound 0.0949 µM
[3] = curve of first compound, second compound 0.3 µM
[4] = curve of first compound, second compound 0.949 µM
[5] = curve of first compound, second compound 3 µM
[6] = second compound 0.03 µM, first compound 0.00316 µM
[7] = second compound 0.03 µM, first compound 0.01 µM
[8] = second compound 0.03 µM, first compound 0.0316 µM
[9] = second compound 0.03 µM, first compound 0.1 µM
[10] = second compound 0.03 µM, first compound 0.316 µM
[11] = second compound 0.03 µM, first compound 1 µM
[12] = second compound 0.0949 µM, first compound 0.00316 µM
[13] = second compound 0.0949 µM, first compound 0.01 µM
[14] = second compound 0.0949 µM, first compound 0.0316 µM
[15] = second compound 0.0949 µM, first compound 0.1 µM
[16] = second compound 0.0949 µM, first compound 0.316 µM
[17] = second compound 0.0949 µM, first compound 1 µM
[18] = second compound 0.3 µM, first compound 0.00316 µM
[19] = second compound 0.3 µM, first compound 0.01 µM
[20] = second compound 0.3 µM, first compound 0.0316 µM
[21] = second compound 0.3 µM, first compound 0.1 µM
[22] = second compound 0.3 µM, first compound 0.316 µM
[23] = second compound 0.3 µM, first compound 1 µM
[24] = second compound 0.949 µM, first compound 0.00316 µM
[25] = second compound 0.949 µM, first compound 0.01 µM
[26] = second compound 0.949 µM, first compound 0.0316 µM
[27] = second compound 0.949 µM, first compound 0.1 µM
[28] = second compound 0.949 µM, first compound 0.316 µM
[29] = second compound 0.949 µM, first compound 1 µM
[30] = second compound 3 µM, first compound 0.00316 µM
[31] = second compound 3 µM, first compound 0.01 µM
[32] = second compound 3 µM, first compound 0.0316 µM
[33] = second compound 3 µM, first compound 0.1 µM
[34] = second compound 3 µM, first compound 0.316 µM
[35] = second compound 3 µM, first compound 1 µM

SMILES: CNC(C)C(=O)NC1CN(S(=O)(=O)c2cccc(S(=O)(=O)N3CCC4CCC(C(=O)NC(c5ccccc5)c5ccccc5)N4C(=O)C(NC(=O)C(C)NC)C3)c2)CCC2CCC(C(=O)NC(c3ccccc3)c3ccccc3)N2C1=O (centres undefined) + CCN1C(C(=O)NC23CCC(C(=O)O)(CC2)CC3)C(c2cccc(Cl)c2F)C2(C(=O)Nc3cc(Cl)ccc32)C12CCCCC2
- IC50 [1]: < 0.00316 µM
- IC50 [2]: < 0.00316 µM
- IC50 [3]: < 0.00316 µM
- IC50 [4]: 0.00318 µM
- IC50 [5]: < 0.00316 µM
- viability, T/C [6]: 40.6%
- viability, T/C [7]: 17.9%
- viability, T/C [8]: 4.75%
- viability, T/C [9]: 1.79%
- viability, T/C [10]: 2.4%
- viability, T/C [11]: 1.46%
- viability, T/C [12]: 45.3%
- viability, T/C [13]: 19.1%
- viability, T/C [14]: 4.24%
- viability, T/C [15]: 4.09%
- viability, T/C [16]: 2.61%
- viability, T/C [17]: 1.28%
- viability, T/C [18]: 47.4%
- viability, T/C [19]: 16.6%
- viability, T/C [20]: 5.95%
- viability, T/C [21]: 3.82%
- viability, T/C [22]: 3.47%
- viability, T/C [23]: 1.29%
- viability, T/C [24]: 50.4%
- viability, T/C [25]: 18.4%
- viability, T/C [26]: 6.82%
- viability, T/C [27]: 2.74%
- viability, T/C [28]: 2.84%
- viability, T/C [29]: 2.2%
- viability, T/C [30]: 47.6%
- viability, T/C [31]: 16.9%
- viability, T/C [32]: 4.77%
- viability, T/C [33]: 2.4%
- viability, T/C [34]: 3.09%
- viability, T/C [35]: 1.59%

SMILES: O=C(c1ccc(F)c(F)c1Nc1ccc(I)cc1F)N1CC(O)([C@@H]2CCCCN2)C1
- viability, T/C (compound 0.00316 µM): 94.1% and 97.7% and 117%
- viability, T/C (compound 0.01 µM): 116% and 99.4% and 109%
- viability, T/C (compound 0.0316 µM): 98.1% and 97.8% and 122%
- viability, T/C (compound 0.1 µM): 116% and 111% and 136%
- viability, T/C (compound 0.316 µM): 132% and 119% and 145%
- viability, T/C (compound 1 µM): 126% and 119% and 145%
- IC50 (curve of compound): > 1 µM

SMILES: CCN1CCN(Cc2ccc(Nc3ncc(F)c(-c4cc(F)c5nc(C)n(C(C)C)c5c4)n3)nc2)CC1
- viability, T/C (compound 0.00316 µM): 106% and 104% and 96.7%
- viability, T/C (compound 0.01 µM): 107% and 101% and 105%
- viability, T/C (compound 0.0316 µM): 112% and 95.9% and 98.3%
- viability, T/C (compound 0.1 µM): 103% and 110% and 106%
- viability, T/C (compound 0.316 µM): 108% and 113% and 112%
- viability, T/C (compound 1 µM): 120% and 116% and 119%
- IC50 (curve of compound): > 1 µM

SMILES: C#Cc1c(F)ccc2cc(O)cc(-c3ncc4c(N5CC6CCC(C5)N6)nc(OCC56CCCN5CC(F)C6)nc4c3F)c12 (centres undefined) + CCN1C(C(=O)NC23CCC(C(=O)O)(CC2)CC3)C(c2cccc(Cl)c2F)C2(C(=O)Nc3cc(Cl)ccc32)C12CCCCC2
- IC50 [1]: > 10 µM
- IC50 [2]: > 10 µM
- IC50 [3]: > 10 µM
- IC50 [4]: > 10 µM
- IC50 [5]: > 10 µM
- viability, T/C [8]: 96.4%
- viability, T/C [9]: 102%
- viability, T/C [10]: 97.6%
- viability, T/C [11]: 101%
- viability, T/C (second compound 0.03 µM, first compound 3.16 µM): 88.7%
- viability, T/C (second compound 0.03 µM, first compound 10 µM): 104%
- viability, T/C [14]: 102%
- viability, T/C [15]: 110%
- viability, T/C [16]: 106%
- viability, T/C [17]: 95.8%
- viability, T/C (second compound 0.0949 µM, first compound 3.16 µM): 110%
- viability, T/C (second compound 0.0949 µM, first compound 10 µM): 97.4%
- viability, T/C [20]: 109%
- viability, T/C [21]: 108%
- viability, T/C [22]: 117%
- viability, T/C [23]: 96.9%
- viability, T/C (second compound 0.3 µM, first compound 3.16 µM): 97.5%
- viability, T/C (second compound 0.3 µM, first compound 10 µM): 99%
- viability, T/C [26]: 123%
- viability, T/C [27]: 123%
- viability, T/C [28]: 115%
- viability, T/C [29]: 93%
- viability, T/C (second compound 0.949 µM, first compound 3.16 µM): 115%
- viability, T/C (second compound 0.949 µM, first compound 10 µM): 103%
- viability, T/C [32]: 118%
- viability, T/C [33]: 123%
- viability, T/C [34]: 129%
- viability, T/C [35]: 114%
- viability, T/C (second compound 3 µM, first compound 3.16 µM): 108%
- viability, T/C (second compound 3 µM, first compound 10 µM): 114%

SMILES: Cn1ncnc1[C@H]1c2n[nH]c(=O)c3cc(F)cc(c23)N[C@@H]1c1ccc(F)cc1 + CCN1C(C(=O)NC23CCC(C(=O)O)(CC2)CC3)C(c2cccc(Cl)c2F)C2(C(=O)Nc3cc(Cl)ccc32)C12CCCCC2
- IC50 [1]: > 0.1 µM
- IC50 [2]: > 0.1 µM
- IC50 [3]: > 0.1 µM
- IC50 [4]: > 0.1 µM
- IC50 [5]: > 0.1 µM
- viability, T/C (second compound 0.03 µM, first compound 0.000316 µM): 107%
- viability, T/C (second compound 0.03 µM, first compound 0.001 µM): 109%
- viability, T/C [6]: 107%
- viability, T/C [7]: 108%
- viability, T/C [8]: 107%
- viability, T/C [9]: 104%
- viability, T/C (second compound 0.0949 µM, first compound 0.000316 µM): 118%
- viability, T/C (second compound 0.0949 µM, first compound 0.001 µM): 125%
- viability, T/C [12]: 114%
- viability, T/C [13]: 102%
- viability, T/C [14]: 114%
- viability, T/C [15]: 109%
- viability, T/C (second compound 0.3 µM, first compound 0.000316 µM): 118%
- viability, T/C (second compound 0.3 µM, first compound 0.001 µM): 128%
- viability, T/C [18]: 119%
- viability, T/C [19]: 121%
- viability, T/C [20]: 113%
- viability, T/C [21]: 112%
- viability, T/C (second compound 0.949 µM, first compound 0.000316 µM): 139%
- viability, T/C (second compound 0.949 µM, first compound 0.001 µM): 138%
- viability, T/C [24]: 120%
- viability, T/C [25]: 118%
- viability, T/C [26]: 112%
- viability, T/C [27]: 126%
- viability, T/C (second compound 3 µM, first compound 0.000316 µM): 124%
- viability, T/C (second compound 3 µM, first compound 0.001 µM): 136%
- viability, T/C [30]: 132%
- viability, T/C [31]: 129%
- viability, T/C [32]: 131%
- viability, T/C [33]: 121%

SMILES: CCN1C(C(=O)NC23CCC(C(=O)O)(CC2)CC3)C(c2cccc(Cl)c2F)C2(C(=O)Nc3cc(Cl)ccc32)C12CCCCC2 (centres undefined) + Cc1c(S(C)(=O)=O)c(-c2cc(F)cc(N3CCN(c4ccc(NS(=O)(=O)c5ccc(NC(CCN6CCC(C(=O)OCCCP(=O)(O)O)CC6)CSc6ccccc6)c(S(=O)(=O)C(F)(F)F)c5)cc4)CC3)c2)c(-c2ccc(Cl)cc2)n1C(C)C
- IC50 (curve of first compound, second compound 0.1 µM): > 3 µM
- IC50 (curve of first compound, second compound 0.316 µM): > 3 µM
- IC50 (curve of first compound, second compound 1 µM): > 3 µM
- IC50 (curve of first compound, second compound 3.16 µM): 2.85 µM
- IC50 (curve of first compound, second compound 10 µM): 1.66 µM
- viability, T/C (second compound 0.1 µM, first compound 0.00949 µM): 89.3%
- viability, T/C (second compound 0.1 µM, first compound 0.03 µM): 104%
- viability, T/C (second compound 0.1 µM, first compound 0.0949 µM): 91.2%
- viability, T/C (second compound 0.1 µM, first compound 0.3 µM): 91.5%
- viability, T/C (second compound 0.1 µM, first compound 0.949 µM): 92.2%
- viability, T/C (second compound 0.1 µM, first compound 3 µM): 86.4%
- viability, T/C (second compound 0.316 µM, first compound 0.00949 µM): 89.6%
- viability, T/C (second compound 0.316 µM, first compound 0.03 µM): 89.7%
- viability, T/C (second compound 0.316 µM, first compound 0.0949 µM): 95.5%
- viability, T/C (second compound 0.316 µM, first compound 0.3 µM): 85.3%
- viability, T/C (second compound 0.316 µM, first compound 0.949 µM): 88.3%
- viability, T/C (second compound 0.316 µM, first compound 3 µM): 69.4%
- viability, T/C (second compound 1 µM, first compound 0.00949 µM): 84.3%
- viability, T/C (second compound 1 µM, first compound 0.03 µM): 83%
- viability, T/C (second compound 1 µM, first compound 0.0949 µM): 87.5%
- viability, T/C (second compound 1 µM, first compound 0.3 µM): 80.8%
- viability, T/C (second compound 1 µM, first compound 0.949 µM): 78.9%
- viability, T/C (second compound 1 µM, first compound 3 µM): 62.6%
- viability, T/C (second compound 3.16 µM, first compound 0.00949 µM): 77.9%
- viability, T/C (second compound 3.16 µM, first compound 0.03 µM): 82.5%
- viability, T/C (second compound 3.16 µM, first compound 0.0949 µM): 72.5%
- viability, T/C (second compound 3.16 µM, first compound 0.3 µM): 72.3%
- viability, T/C (second compound 3.16 µM, first compound 0.949 µM): 66.2%
- viability, T/C (second compound 3.16 µM, first compound 3 µM): 48.7%
- viability, T/C (second compound 10 µM, first compound 0.00949 µM): 70.2%
- viability, T/C (second compound 10 µM, first compound 0.03 µM): 79.1%
- viability, T/C (second compound 10 µM, first compound 0.0949 µM): 70.1%
- viability, T/C (second compound 10 µM, first compound 0.3 µM): 73.2%
- viability, T/C (second compound 10 µM, first compound 0.949 µM): 59%
- viability, T/C (second compound 10 µM, first compound 3 µM): 38.6%

— PubChem BioAssay AID1963439 (Molecular Pharmacology Branch, DTP, NCI, 2024)
